Assays:
CCKA receptor = biological target: T1, CCKA receptor (Rattus norvegicus, UniProt P30551); assay: [125]I-CCK-8 receptor binding assay, CCKA (rat pancreas membranes); settings: for IC50: rat pancreas membranes, 125I-Bolton-Hunter labeled CCK 25 pM, pH 6.5, 2 hrs at RT, read-out: Binding affinity Activity CCK-A
T1 construct: Pancreatic membranes were prepared in a similar way described by Charpentier et al; from tissue; host or cells: rat pancreas membranes
T1 sequence (P30551 1-444): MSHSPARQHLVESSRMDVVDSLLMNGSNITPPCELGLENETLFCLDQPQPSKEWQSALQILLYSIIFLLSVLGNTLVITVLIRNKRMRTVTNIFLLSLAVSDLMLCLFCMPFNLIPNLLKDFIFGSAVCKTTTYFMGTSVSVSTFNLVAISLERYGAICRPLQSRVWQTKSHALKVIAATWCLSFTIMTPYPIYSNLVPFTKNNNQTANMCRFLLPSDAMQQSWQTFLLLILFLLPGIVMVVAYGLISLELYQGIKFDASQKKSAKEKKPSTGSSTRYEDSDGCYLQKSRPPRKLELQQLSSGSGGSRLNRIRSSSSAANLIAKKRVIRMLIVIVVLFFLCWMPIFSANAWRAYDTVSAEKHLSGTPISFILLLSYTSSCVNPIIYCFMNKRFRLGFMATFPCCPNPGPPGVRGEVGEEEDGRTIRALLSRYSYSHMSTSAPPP
Procedure: (§1) CCKA and CCKB receptor binding assays were performed using guinea pig cerebral cortex (CCKB) and rat pancreas (CCKA). Male guinea pig brain tissues were prepared according to the modified method described by Saita et al, [(1994), Eur. J. Pharmacol., 269, 249-254]. Pancreatic membranes were prepared in a similar way described by Charpentier et al, [(1988), Proc Natl Acad Sci USA, 85, 1968-1972]. Briefly, tissues were homogenized in ice cold sucrose (0.32 M, 25 ml) for 15 strokes at 500 rpm and centrifuged at 13000 rpm for 10 mins. The supernatant was re-centrifuged at 13000 rpm for 20 mins. The resulting pellet was re-dispersed to the required volume of buffer at 500 rpm and stored in aliquots at −70° C.
(§2) Binding was achieved using a radioligand ^125I-Bolton-Hunter labeled CCK, NEN at 25 pM. The samples were incubated {with membranes (0.1 mg/ml)} in 20 mM Hepes, 1 mM EGTA, 5 mM MgCl2, 150 mm NaCl, 0.25 mg/ml bacitracin at pH 6.5 for 2 hrs at RT and then […] by centrifugation at 1100 rpm for 5 minutes. The membrane pellets were washed twice with water and the bound radioactivity was measured in a Packard Cobra Auto-gamma counter (B5005). All binding assays were carried out with L-363, 260 as an internal non-specific standard. Controls (no compound) were also added. All samples were made in duplicate and repeated twice. All compounds were initially screened for percentage inhibition at 10 μm. Samples showing an average inhibition of >35% were diluted to 1 μm and re-screened and if active diluted again.

CCKB receptor = biological target: T2, CCKB receptor (Cavia porcellus, UniProt H0VZC5); assay: [125]I-CCK-8 receptor binding assay, CCKB (guinea pig cerebral cortex membranes); settings: for IC50: guinea pig cerebral cortex membranes, 125I-Bolton-Hunter labeled CCK 25 pM, pH 6.5, 2 hrs at RT, read-out: Binding affinity Activity CCK-B
T2 construct: Male guinea pig brain tissues were prepared according to the modified method described by Saita et al; from tissue; host or cells: male guinea pig cerebral cortex membranes
T2 sequence (H0VZC5 1-426): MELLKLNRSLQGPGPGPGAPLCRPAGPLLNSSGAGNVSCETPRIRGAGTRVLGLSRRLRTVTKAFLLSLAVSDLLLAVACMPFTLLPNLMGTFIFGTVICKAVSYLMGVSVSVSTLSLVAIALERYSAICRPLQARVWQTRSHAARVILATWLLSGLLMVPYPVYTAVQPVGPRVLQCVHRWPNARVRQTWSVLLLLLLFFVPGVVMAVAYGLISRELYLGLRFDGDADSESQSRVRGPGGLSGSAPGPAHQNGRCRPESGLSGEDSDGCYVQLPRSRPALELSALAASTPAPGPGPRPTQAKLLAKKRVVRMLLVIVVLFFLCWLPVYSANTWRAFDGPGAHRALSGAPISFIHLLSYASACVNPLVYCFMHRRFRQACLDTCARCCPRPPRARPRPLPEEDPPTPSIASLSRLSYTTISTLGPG
Procedure: as §1, §2

C[C@H](c1ccccc1)N1C(=O)C=C(Cl)C1(O)c1ccccc1 (single isomer, unassigned) [Example 10a]
IC50 (CCKA receptor): > 10 µM
IC50 (CCKB receptor): > 10 µM
melting point: 162 to 164 °C

C[C@H](c1ccccc1)N1C(=O)C=C(Cl)C1(O)c1ccccc1 (single isomer, unassigned) [Example 10b]
IC50 (CCKA receptor): > 10 µM
IC50 (CCKB receptor): > 10 µM

O=C1C=C(Cl)C(O)(c2ccccc2)N1C1CC1 (stereo not drawn) [Example 1, 4-Chloro-1-cyclopropyl-5-hydroxy-5-phenyl-1,5-dihydro-pyrrol-2-one]
IC50 (CCKA receptor): 2.5 µM
IC50 (CCKB receptor): > 10 µM

Cc1ccc(N2C(=O)C=C(Cl)C2(O)c2ccccc2)cc1C (stereo not drawn) [Example 2, 4-Chloro-1-(3,4-dimethyl-phenyl)-5-hydroxy-5-phenyl-1,5-dihydro-pyrrol-2-one]
IC50 (CCKA receptor): 2 µM
IC50 (CCKB receptor): > 10 µM
melting point: 168 to 171 °C

CC(C)N1C(=O)C=C(Cl)C1(O)c1ccccc1 (stereo not drawn) [Example 3, 4-Chloro-5-hydroxy-1-isopropyl-5-phenyl-1,5-dihydro-pyrrol-2-one]
IC50 (CCKA receptor): > 10 µM
IC50 (CCKB receptor): > 10 µM

CN1C(=O)C=C(Cl)C1(O)c1ccccc1 (stereo not drawn) [Example 4, 4-Chloro-5-hydroxy-1-methyl-5-phenyl-1,5-dihydro-pyrrol-2-one]
IC50 (CCKA receptor): > 10 µM
IC50 (CCKB receptor): > 10 µM

O=C1C=C(Cl)C(O)(c2ccccc2)N1CCc1ccccc1 (stereo not drawn) [Example 5, 4-Chloro-5-hydroxy-1-phenethyl-5-phenyl-1,5-dihydro-pyrrol-2-one]
CCK antagonist character (in words) (CCKA receptor; judgement in words on CCK-A and CCK-B binding): potent and mixed CCK antagonist
IC50 (CCKA receptor): 0.02 µM
IC50 (CCKB receptor): 0.02 µM
melting point: 155 to 158 °C

CCCCCCN1C(=O)C=C(Cl)C1(O)c1ccccc1 (stereo not drawn) [Example 6, 4-Chloro-1-hexyl-5-hydroxy-5-phenyl-1,5-dihydro-pyrrol-2-one]
IC50 (CCKA receptor): > 10 µM
IC50 (CCKB receptor): > 10 µM

O=C1C=C(Cl)C(O)(c2ccccc2)N1C1CCCC1 (stereo not drawn) [Example 7, 4-Chloro-1-cyclopentyl-5-hydroxy-5-phenyl-1,5-dihydro-pyrrol-2-one]
IC50 (CCKA receptor): 0.36 µM
IC50 (CCKB receptor): 0.84 µM

CC(C)CN1C(=O)C=C(Cl)C1(O)c1ccccc1 (stereo not drawn) [Example 8, 4-Chloro-5-hydroxy-1-isobutyl-5-phenyl-1,5-dihydro-pyrrol-2-one]
IC50 (CCKA receptor): 4.5 µM
IC50 (CCKB receptor): 0.01 µM
affinity towards the CCK B receptor (in words) (CCKB receptor; judgement in words): good affinity

O=C1C=C(Cl)C(O)(c2ccccc2)N1Cc1ccccc1 (stereo not drawn) [Example 9, 1-Benzyl-4-chloro-5-hydroxy-5-phenyl-1,5-dihydro-pyrrol-2-one]
IC50 (CCKA receptor): > 10 µM
IC50 (CCKB receptor): > 10 µM

O=C1C=C(Cl)C(O)(c2ccccc2)N1C1CCCCC1 (stereo not drawn) [Example 11, 4-Chloro-1-cyclohexyl-5-hydroxy-5-phenyl-1,5-dihydro-pyrrol-2-one]
IC50 (CCKA receptor): > 10 µM
IC50 (CCKB receptor): > 10 µM

O=C1C=C(Cl)C(O)(c2ccc(Cl)cc2)N1C1CC1 (stereo not drawn) [Example 12, 4-Chloro-5-(4-chloro-phenyl)-1-cyclopropyl-5-hydroxy-1,5-dihydro-pyrrol-2-one]
IC50 (CCKA receptor): 7.5 µM
IC50 (CCKB receptor): > 10 µM

CC(C)N1C(=O)C=C(Cl)C1(O)c1ccc(Cl)cc1 (stereo not drawn) [Example 13, 4-Chloro-5-(4-chloro-phenyl)-5-hydroxy-1-isopropyl-1,5-dihydro-pyrrol-2-one]
IC50 (CCKA receptor): > 10 µM
IC50 (CCKB receptor): > 10 µM

CN1C(=O)C=C(Cl)C1(O)c1ccc(Cl)cc1 (stereo not drawn) [Example 14, 4-Chloro-5-(4-chloro-phenyl)-5-hydroxy-1-methyl-1,5-dihydro-pyrrol-2-one]
IC50 (CCKA receptor): > 10 µM
IC50 (CCKB receptor): > 10 µM

O=C1C=C(Cl)C(O)(c2ccc(Cl)cc2)N1CCc1ccccc1 (stereo not drawn) [Example 15, 4-Chloro-5-(4-chloro-phenyl)-5-hydroxy-1-phenethyl-1,5-dihydro-pyrrol-2-one]
IC50 (CCKA receptor): 0.002 µM
IC50 (CCKB receptor): 0.0015 µM
melting point: 145 to 148 °C

CCCCCCN1C(=O)C=C(Cl)C1(O)c1ccc(Cl)cc1 (stereo not drawn) [Example 16, 4-Chloro-5-(4-chloro-phenyl)-1-hexyl-5-hydroxy-1,5-dihydro-pyrrol-2-one]
IC50 (CCKA receptor): > 10 µM
IC50 (CCKB receptor): > 10 µM

O=C1C=C(Cl)C(O)(c2ccc(Cl)cc2)N1C1CCCC1 (stereo not drawn) [Example 17, 4-Chloro-5-(4-chloro-phenyl)-1-cyclopentyl-5-hydroxy-1,5-dihydro-pyrrol-2-one]
IC50 (CCKA receptor): 2.5 µM
IC50 (CCKB receptor): > 10 µM

O=C1C=C(Cl)C(O)(c2ccc(Cl)cc2)N1Cc1ccccc1 (stereo not drawn) [Example 19, 1-Benzyl-4-chloro-5-(4-chloro-phenyl)-5-hydroxy-1,5-dihydro-pyrrol-2-one]
IC50 (CCKA receptor): 2.2 µM
IC50 (CCKB receptor): > 10 µM
melting point: 149 to 152 °C

Reference: patent US8921577B2, “Cholecystokinin receptor ligands” (PNB Vesper Life Sciences Pvt. Ltd., priority 2012, dated 2014)
